Data reported in ChEMBL document CHEMBL4007391, “Tackling Fungal Resistance by Biofilm Inhibitors” (J Med Chem, 2017).
≈ marks a conversion by molar mass, not a printed value.

Assays:
[1] = Toxicity in mouse; assay type: organism-based; details: in vivo
Candida albicans [2] = assay: Disruption of biofilm of Candida albicans DAY185 assessed as death of biofilm hyphae after 24 hrs by XTT assay; assay type: functional
Candida albicans [3] = assay: Inhibition of biofilm formation of Candida albicans ATCC 90028 after 48 hrs in presence of fluconazole by XTT assay; assay type: functional
Candida albicans [4] = assay: Inhibition of biofilm formation of Candida albicans ATCC 90028 after 48 hrs in presence of voriconazole by XTT assay; assay type: functional
Candida albicans [5] = assay: Disruption of biofilm of Candida albicans ATCC 90028 after 48 hrs in presence of fluconazole by XTT assay; assay type: functional
Candida albicans [6] = assay: Disruption of biofilm of Candida albicans ATCC 90028 after 48 hrs in presence of voriconazole by XTT assay; assay type: functional
Candida albicans [7] = assay: Antifungal activity against fluconazole-resistant Candida albicans after 48 hrs by broth microdilution assay; assay type: functional
Candida albicans [8] = assay: Inhibition of biofilm formation of fluconazole-resistant Candida albicans at 2 to 4 ug/ml after 24 hrs by XTT assay; assay type: functional
Candida albicans [9] = assay: Disruption of biofilm of fluconazole-resistant Candida albicans at 8 to 32 ug/ml after 24 hrs by XTT assay; assay type: functional

Compound: NC1C2CC3CC(C2)CC1C3 (centres undefined)
- LD50 [1]: 250 mg/kg

Compound: C=C(C)[C@H](CC=C(C)C)C[C@]12C[C@H](CC=C(C)C)C(C)(C)[C@](CC=C(C)C)(C(=O)C(C(=O)c3ccc(O)c(O)c3)=C1O)C2=O
- EC50 (Candida albicans [2]): 30 to 50 µM

Compound: CCN(CC)CCCC(C)Nc1ccnc2cc(Cl)ccc12 (centres undefined) [CHLOROQUINE]
- fractional inhibitory concentration index (FICI) (Candida albicans [3]): 0.156 - 0.25
- fractional inhibitory concentration index (FICI) (Candida albicans [4]): 0.156 - 0.25
- fractional inhibitory concentration index (FICI) (Candida albicans [5]): 0.156 - 0.25
- fractional inhibitory concentration index (FICI) (Candida albicans [6]): 0.156 - 0.25

Compound: CCCCCCCCCCCCCCCCOP(=O)([O-])OCC[N+](C)(C)C [MILTEFOSINE]
- MIC (Candida albicans [7]): 0.5 to 2 mg/L (≈ 1.23 to 4.91 µM)
- inhibition (INH) (Candida albicans [8]): 90%
- inhibition (INH) (Candida albicans [9]): >90%
